Test results as given in publication PMC6788505 (2019).

What was measured:
[1] = tested on: CA36 (DNA, aptamer) GCTCCGGACTTGGGTGGGTGGGTTGGGGTACGGTGC; test: E-AB sensor, square-wave voltammetry; settings: working buffer; apparent; surface-bound
[2] = tested on: CA40_2MM (DNA, aptamer) ACGCTCTGGACTTGGGTGGGTGGGTTGGGGTACGGTGTGT; test: E-AB sensor, square-wave voltammetry; settings: working buffer; apparent; surface-bound
[3] = tested on: CA40 (DNA, aptamer) ACGCTCCGGACTTGGGTGGGTGGGTTGGGGTACGGTGCGT; test: fluorescence titration (intrinsic irinotecan fluorescence); settings: working buffer; 1 µM irinotecan titrated with aptamer; excitation 370 nm
[4] = tested on: CA16 (DNA, G4) GGGTGGGTGGGTTGGG; test: E-AB sensor, square-wave voltammetry; settings: working buffer; apparent; surface-bound; KD fixed in fit
[5] = tested on: CA40_1MM (DNA, aptamer) ACGCTCCGGACTTGGGTGGGTGGGTTGGGGTACGGTGTGT; test: E-AB sensor, square-wave voltammetry; settings: working buffer; apparent; surface-bound
[6] = tested on: CA32 (DNA, aptamer) TCCGGACTTGGGTGGGTGGGTTGGGGTACGGT; test: E-AB sensor, kinetic differential measurement (10 and 120 Hz); settings: buffer; apparent; co-deposited 1:1 with linear probe; surface-bound
[7] = tested on: CA28 (DNA, aptamer) CGGACTTGGGTGGGTGGGTTGGGGTACG; test: E-AB sensor, square-wave voltammetry; settings: working buffer; apparent; surface-bound; KD fixed in fit
[8] = tested on: CA32 (DNA, aptamer) TCCGGACTTGGGTGGGTGGGTTGGGGTACGGT; test: E-AB sensor, square-wave voltammetry; settings: working buffer; apparent; surface-bound

CCc1c2c(nc3ccc(OC(=O)N4CCC(N5CCCCC5)CC4)cc13)-c1cc3c(c(=O)n1C2)COC(=O)[C@]3(O)CC
binding [1]: yes | binding [2]: yes | KD [3]: 0.475 ± 0.01 µM | binding [4]: yes | binding [5]: yes | KD [6]: 16.0 ± 1.3 µM | binding [7]: yes | binding [8]: yes
